# Reference: patent US20260345619A1 (Principia Biopharma Inc., priority 2023, published 2026)
# Assay: Pre-bronchodilator FEV1 and percent predicted FEV1 by spirometry, change from baseline
# Assay type: in vivo, human
# Conditions: 400 mg BID, Week 12
# Method: Spirometry is a standard test to measure patients' lung function.
# The primary endpoint was the proportion of patients with LOAC. The key secondary endpoint for the study was change in pre-bronchodilator FEV1 from baseline at EOT.
# Reversibility is defined as an increase of the absolute FEV1 after administration of bronchodilator and is measured by spirometry as postbronchodilator increase in FEV1 in percent of the prebronchodilator FEV1. After spirometry for measuring prebronchodilator FEV1, participants were to receive 2-4 puffs of albuterol/salbutamol or levalbuterol/levosalbutamol from a primed MDI. The postbronchodilator spirometry may have been repeated several times within 30 minutes after administration of bronchodilator. Alternatively, and only if it was consistent with usual office practice (to be documented), reversibility may have been performed using inhalation of nebulized albuterol/salbutamol or levalbuterol/levosalbutamol.
# Secondary endpoints included pre-bronchodilator FEV1 change from baseline at EOT, ACQ-5 score change from baseline, and AQLQ score change from baseline. Other secondary and exploratory endpoints are described in Table 2.
# [1] = baseline FEV1 <2.022 L (median)
# [2] = baseline FEV1 reversibility <12%
# [3] = baseline FEV1 reversibility ≥12%
# [4] = baseline FEV1 ≥2.022 L (median)
# [5] = baseline IgE <210.8 IU/mL (median)
# [6] = baseline IgE ≥210.8 IU/mL (median)
# [7] = baseline blood eosinophils <0.15 10^9/L
# [8] = baseline blood eosinophils <0.3 10^9/L
# [9] = baseline blood eosinophils ≥0.15 10^9/L
# [10] = baseline blood eosinophils ≥0.3 10^9/L
# [11] = baseline percent predicted FEV1 <68% (median)
# [12] = baseline percent predicted FEV1 ≥68% (median)
smiles,measurement,setting,value
"CC(C)(C=C(C#N)C(=O)N1CCC[C@@H](n2nc(-c3ccc(Oc4ccccc4)cc3F)c3c(N)ncnc32)C1)N1CCN(C2COC2)CC1 (mixture of isomers) [rilzabrutinib, (R)-2-[3-[4-amino-3-(2-fluoro-4-phenoxy-phenyl)pyrazolo[3,4-d]pyrimidin-1-yl]piperidine-1-carbonyl]-4-methyl-4-[4-(oxetan-3-yl)piperazin-1-yl]pent-2-enenitrile]","Pre-bronchodilator FEV1 change from baseline, LS Mean",baseline BMI ≥30 kg/m^2,-0.04 L
same,"Pre-bronchodilator FEV1 change from baseline, LS Mean Diff vs. placebo",baseline BMI ≥30 kg/m^2,-0.13 L
same,"Pre-bronchodilator FEV1 change from baseline, Mean",baseline BMI ≥30 kg/m^2,-0.18 L
same,"Pre-bronchodilator FEV1 change from baseline, LS Mean",[1],-0.08 L
same,"Pre-bronchodilator FEV1 change from baseline, LS Mean Diff vs. placebo",[1],0.04 L
same,"Pre-bronchodilator FEV1 change from baseline, Mean",[1],-0.06 L
same,"Pre-bronchodilator FEV1 change from baseline, LS Mean",[2],-0.23 L
same,"Pre-bronchodilator FEV1 change from baseline, LS Mean Diff vs. placebo",[2],-0.00 L
same,"Pre-bronchodilator FEV1 change from baseline, Mean",[2],-0.24 L
same,"Pre-bronchodilator FEV1 change from baseline, LS Mean",[3],0.07 L
same,"Pre-bronchodilator FEV1 change from baseline, LS Mean Diff vs. placebo",[3],-0.05 L
same,"Pre-bronchodilator FEV1 change from baseline, Mean",[3],0.08 L
same,"Pre-bronchodilator FEV1 change from baseline, LS Mean",[4],-0.09 L
same,"Pre-bronchodilator FEV1 change from baseline, LS Mean Diff vs. placebo",[4],-0.03 L
same,"Pre-bronchodilator FEV1 change from baseline, Mean",[4],-0.02 L
same,"Pre-bronchodilator FEV1 change from baseline, LS Mean",baseline FeNO <25 ppb,-0.16 L
same,"Pre-bronchodilator FEV1 change from baseline, LS Mean Diff vs. placebo",baseline FeNO <25 ppb,0.03 L
same,"Pre-bronchodilator FEV1 change from baseline, Mean",baseline FeNO <25 ppb,-0.12 L
same,"Pre-bronchodilator FEV1 change from baseline, LS Mean",baseline FeNO <35 ppb,-0.19 L
same,"Pre-bronchodilator FEV1 change from baseline, LS Mean Diff vs. placebo",baseline FeNO <35 ppb,-0.04 L
same,"Pre-bronchodilator FEV1 change from baseline, Mean",baseline FeNO <35 ppb,-0.10 L
same,"Pre-bronchodilator FEV1 change from baseline, LS Mean",baseline FeNO ≥25 ppb,-0.00 L
same,"Pre-bronchodilator FEV1 change from baseline, LS Mean Diff vs. placebo",baseline FeNO ≥25 ppb,-0.01 L
same,"Pre-bronchodilator FEV1 change from baseline, Mean",baseline FeNO ≥25 ppb,0.01 L
same,"Pre-bronchodilator FEV1 change from baseline, LS Mean",baseline FeNO ≥35 ppb,0.05 L
same,"Pre-bronchodilator FEV1 change from baseline, LS Mean Diff vs. placebo",baseline FeNO ≥35 ppb,0.06 L
same,"Pre-bronchodilator FEV1 change from baseline, Mean",baseline FeNO ≥35 ppb,0.08 L
same,"Pre-bronchodilator FEV1 change from baseline, LS Mean",baseline IgE <100 IU/mL,-0.11 L
same,"Pre-bronchodilator FEV1 change from baseline, LS Mean Diff vs. placebo",baseline IgE <100 IU/mL,-0.03 L
same,"Pre-bronchodilator FEV1 change from baseline, Mean",baseline IgE <100 IU/mL,-0.09 L
same,"Pre-bronchodilator FEV1 change from baseline, LS Mean",[5],-0.11 L
same,"Pre-bronchodilator FEV1 change from baseline, LS Mean Diff vs. placebo",[5],0.01 L
same,"Pre-bronchodilator FEV1 change from baseline, Mean",[5],-0.02 L
same,"Pre-bronchodilator FEV1 change from baseline, LS Mean",baseline IgE ≥100 IU/mL,-0.04 L
same,"Pre-bronchodilator FEV1 change from baseline, LS Mean Diff vs. placebo",baseline IgE ≥100 IU/mL,0.02 L
same,"Pre-bronchodilator FEV1 change from baseline, Mean",baseline IgE ≥100 IU/mL,-0.02 L
same,"Pre-bronchodilator FEV1 change from baseline, LS Mean",[6],-0.02 L
same,"Pre-bronchodilator FEV1 change from baseline, LS Mean Diff vs. placebo",[6],0.01 L
same,"Pre-bronchodilator FEV1 change from baseline, Mean",[6],-0.08 L
same,"Pre-bronchodilator FEV1 change from baseline, LS Mean",[7],-0.08 L
same,"Pre-bronchodilator FEV1 change from baseline, LS Mean Diff vs. placebo",[7],-0.04 L
same,"Pre-bronchodilator FEV1 change from baseline, Mean",[7],-0.10 L
same,"Pre-bronchodilator FEV1 change from baseline, LS Mean",[8],-0.15 L
same,"Pre-bronchodilator FEV1 change from baseline, LS Mean Diff vs. placebo",[8],-0.07 L
same,"Pre-bronchodilator FEV1 change from baseline, Mean",[8],-0.10 L
same,"Pre-bronchodilator FEV1 change from baseline, LS Mean",[9],-0.03 L
same,"Pre-bronchodilator FEV1 change from baseline, LS Mean Diff vs. placebo",[9],0.07 L
same,"Pre-bronchodilator FEV1 change from baseline, Mean",[9],-0.01 L
same,"Pre-bronchodilator FEV1 change from baseline, LS Mean Diff vs. placebo",[10],0.07 L
same,"Pre-bronchodilator FEV1 change from baseline, Mean",[10],0.04 L
same,"Pre-bronchodilator FEV1 change from baseline, LS Mean",[11],-0.21 L
same,"Pre-bronchodilator FEV1 change from baseline, LS Mean Diff vs. placebo",[11],0.03 L
same,"Pre-bronchodilator FEV1 change from baseline, Mean",[11],-0.05 L
same,"Pre-bronchodilator FEV1 change from baseline, LS Mean",[12],-0.07 L
same,"Pre-bronchodilator FEV1 change from baseline, LS Mean Diff vs. placebo",[12],-0.01 L
same,"Pre-bronchodilator FEV1 change from baseline, Mean",[12],-0.02 L
same,"Pre-bronchodilator FEV1 change from baseline, Mean",baseline weight <60 kg,-0.02 L
same,"Pre-bronchodilator FEV1 change from baseline, LS Mean",baseline weight ≥60-<90 kg,-0.09 L
same,"Pre-bronchodilator FEV1 change from baseline, LS Mean Diff vs. placebo",baseline weight ≥60-<90 kg,0.03 L
same,"Pre-bronchodilator FEV1 change from baseline, Mean",baseline weight ≥60-<90 kg,-0.01 L
